Here are results for one compound from patent US20080269343A1, “GALENIC FORMULATIONS OF ORGANIC COMPOUNDS” (priority 2004, published 2008).

Like-named read-outs stand apart in the source and are kept apart here.

The nature of the data set: Single-dose four-period crossover pharmacokinetic study of 75, 150, 300 and 600 mg aliskiren (dosage form 3) in healthy volunteers (Example 3). In kind it is in vivo. The note with it: human, plasma; for Cmax / AUC(0-t) / AUC(0-inf): arithmetic mean (SD); for AUC(0-t): read-out: AUC0-96; for Tmax: median, dosage form 3, healthy subjects n = 30, fasted. On the procedure: An open-label, single-dose, four-period, four-treatment, randomized crossover study with a 7-day washout between each period to compare the plasma concentrations of 75, 150, 300 and 600 mg of aliskiren (dosage form 3) in healthy volunteers was carried out. A total of 32 healthy subjects enrolled and 30 completed all study procedures and treatments. Subjects were screened during a 21-Day period and, if eligible, proceeded to a baseline visit prior to each treatment (four baseline evaluations in total). There was an end of study evaluation prior to discharge from the study site. Subjects were randomized into 4 dosing sequence groups with 8 subjects per sequence. The subjects were admitted to the study center at least 12 hours prior to the initial dosing in each period for baseline evaluations, and were confined to the clinic for at least 48 h post-dose in each period. Following an inter-dose interval of at least 7 days, each subject returned to the study site to receive the alternate treatment as per their randomization schedule. All subjects received each of the 75, 150, 300 and 600 mg treatments once during the study according to a randomization schedule. Plasma samples for determination of aliskiren were obtained over 96 hour period after the dose in each treatment segment. For all treatment periods, subjects fasted for a minimum of 10 hours pre-dose to 4 hours post-dose. Subjects were considered to have completed the study when all safety and pharmacokinetic evaluations had been completed.
Blood samples were collected to determine the pharmacokinetics following a single oral dose of 75, 150, 300 or 600 mg of aliskiren. Plasma concentrations of aliskiren were used to determine the pharmacokinetic parameters using non-compartmental methods, and the data are summarized in FIGS. 1, 2, and 3, and Table 1.

Setting [1] is: single oral dose 75 mg, healthy subjects n = 30.
Setting [2] is: single oral dose 150 mg, healthy subjects n = 30.
Where [3] appears, read: single oral dose 300 mg, healthy subjects n = 30.
Where [4] appears, read: single oral dose 600 mg, healthy subjects n = 30.

The term Cmax denotes the peak of the concentration-time curve. What is called AUC(0-inf) is the area under the concentration-time curve extrapolated to infinity. As usually defined, the Tmax is the time from dosing to the highest level. `COCCCOc1cc(C[C@@H](C[C@H](N)[C@@H](O)C[C@H](C(=O)NCC(C)(C)C(N)=O)C(C)C)C(C)C)ccc1OC` [aliskiren, 2(S),4(S),5(S),7(S)—N-(3-amino-2,2-dimethyl-3-oxopropyl)-2,7-di(1-methylethyl)-4-hydroxy-5-amino-8-[4-methoxy-3-(3-methoxy-propoxy)phenyl]-octanamide] gave a maximum concentration (Cmax) under setting [1] of 26 ng/mL, a Cmax under setting [2] of 72 ng/mL, a Cmax under setting [3] of 202 ng/mL and a Cmax under setting [4] of 420 ng/mL. Also, the AUC(0-t) runs as follows: under setting [1], 266 ng·h/mL; under setting [2], 530 ng·h/mL; under setting [3], 1480 ng·h/mL; under setting [4], 3240 ng·h/mL. Further, the AUC(0-inf) by setting is: (single oral dose 75 mg, healthy subjects, n = 23) 356 ng·h/mL; (single oral dose 150 mg, healthy subjects, n = 29) 627 ng·h/mL; under setting [3], 1620 ng·h/mL; under setting [4], 3520 ng·h/mL. For the same compound, the Tmax is 1 h (single oral dose 75 mg), 2.5 h (single oral dose 150 mg), 3 h (single oral dose 300 mg) and 2 h (single oral dose 600 mg).
